Measured values from EP0739978A2, “Hydantoinase from agrobacterium tumefaciens and its use for the preparation of optically pure N-carbamyl-D-amino acids from racemic hydantoins” (W.R. Grace & Co.-Conn., priority 1995, dated 1996).

How the values were obtained:
[1] = tested on: A. tumefaciens ATCC 55632 hydantoinase; experiment: Substrate specificity; assay type: biochemical; details: for Relative Activity (%): substrate 5 mg/ml in 50 mM Tris-HCl pH 9.0, 40°C, 10 minutes, DL-5-Methylhydantoin = 100; for % Relative Activity with: ATCC 55632: Table 6 values rescaled to 5,6-Dihydrouracil = 100
Description: A. Temperature/activity relationship. Hydantoinase activity was measured using a modification of the colorimetric procedure for detecting N-carbamyl amino acids with p-dimethylaminobenzaldehyde (PDMB) as described by Cecere, et al. (FEBS Letters, 57:192 (1975)). Reaction mixtures (total vol. of 0.4 ml in microfuge tubes) contained 75 µmol of DL-5-methylhydantoin (unless designated otherwise) in 50 mM Tris-HCl buffer (pH 9.0) and a suitable amount of hydantoinase extract. Hydantoinase extracts were added to reaction mixtures which had been pre-equilibrated at 40°C, and after 10 minutes incubation at this temperature, reactions were terminated by the addition of 100 µl of 10% (weight/volume) trichloroacetic acid, followed by 100 µl of 10% (weight/volume) PDMB in 6 N HCl. The solutions were mixed, diluted with 0.6 ml of water and centrifuged at 10,000 rpm for 5 minutes. The absorbencies of the supernatant fractions were determined at 440 nm with a Shimadzu Model 160 spectrophotometer. One unit of activity is defined as the amount of enzyme required to form 1 µmol of N-carbamyl amino acid under these conditions. Protein was determined by the BCA assay as per the manufacturer's instructions. (Pierce Chemical Co., Rockford, IL). Specific activity is expressed as units per mg protein. For the determination of the effect of temperature on hydantoinase activity, hydantoinase extracts of A. tumefaciens were added to reaction mixtures pre-equilibrated at various temperatures and activities were determined by the aforementioned assay. Controls (minus enzyme) were run for each temperature and the values obtained were subtracted from the test sample.
Referring to Table 5, the hydantoinase of the present invention differs from previously described hydantoinases in its combination of high temperature and pH optima, pH stability and lack of requirement or stimulation by metal ions. […] E. Substrate specificity. The substrate specificity of the A. tumefaciens ATCC 55632 hydantoinase was determined by adding hydantoinase extract to 0.4 ml of substrate solution (5 mg/ml 50 mM Tris-HCl buffer, pH 9.0) and incubating the reaction mixtures at 40°C in a water bath for 10 minutes in sealed tubes. The reactions were terminated and further processed as described previously. Controls (minus enzyme) were run for each substrate the values obtained were subtracted from the test sample.

hydantoinase [2] = details: Agrobacterium IP I671 hydantoinase; cited from earlier work
hydantoinase [3] = details: Pseudomonas sp. AJ 11220 hydantoinase; cited from earlier work
hydantoinase [4] = details: Agrobacterium radiobacter hydantoinase; cited from earlier work
hydantoinase [5] = target: hydantoinase (Pseudomonas putida, UniProt Q59699); details: Pseudomonas fluorescens DSM 84 hydantoinase; cited from earlier work
Sequence of hydantoinase (Pseudomonas putida, UniProt Q59699) (Q59699 whole entry): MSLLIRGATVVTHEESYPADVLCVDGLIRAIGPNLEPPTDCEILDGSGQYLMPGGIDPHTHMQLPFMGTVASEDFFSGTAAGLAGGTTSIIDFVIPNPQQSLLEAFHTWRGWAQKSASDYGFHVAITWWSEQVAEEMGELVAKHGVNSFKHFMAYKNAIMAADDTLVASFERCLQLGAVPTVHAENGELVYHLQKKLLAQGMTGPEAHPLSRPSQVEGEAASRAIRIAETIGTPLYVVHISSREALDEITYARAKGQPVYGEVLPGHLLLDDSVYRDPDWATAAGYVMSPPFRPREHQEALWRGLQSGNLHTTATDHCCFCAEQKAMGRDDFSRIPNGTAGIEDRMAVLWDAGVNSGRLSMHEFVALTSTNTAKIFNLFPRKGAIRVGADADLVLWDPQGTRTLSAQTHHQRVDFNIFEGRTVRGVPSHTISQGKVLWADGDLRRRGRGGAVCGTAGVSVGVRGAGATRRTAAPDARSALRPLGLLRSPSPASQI

[6] = tested on: A. tumefaciens ATCC 55632; experiment: Induction of hydantoinase activity, basal salts medium with yeast extract and glucose; assay type: cell-based; details: addition 2 mg/ml, cells harvested after 8 hours; no addition 0.06
Description: In particular it should be noted that the substrate specificity of hydantoinase from A. tumefaciens ATCC 55632 differs substantially from those described for other Agrobacterium species (5 and 6) due to its high relative activity with dihydrouracil and 5-methylhydantoin and its relatively low rate of hydrolysis with 5-benzylhydantoin F. Induction of hydantoinase activity. A. tumefaciens ATCC 55632 was grown in a medium containing basal salts medium, 1% yeast extract and 20 mM glucose. Various hydantoins or carbamyl amino acids were added to a concentration of 2 mg/ml to induce hydantoinase activity. Cells were harvested after 8 hours, hydantoinase extracts were prepared and hydantoinase activity was determined. […]

hydantoinase [7] = details: Arthrobacter crystallopoietes AM2 hydantoinase; cited from earlier work
hydantoinase [8] = details: P. striata hydantoinase; cited from earlier work
[9] = tested on: A. tumefaciens ATCC 55632; experiment: Induction of hydantoinase activity, complex medium (separate experiment); assay type: cell-based; details: for Specific Activity (Units/mg): inducer 1 gm/liter, complex medium, 24 hours at 30°C, no inducer 0.13
Description: 2,4-Thiouracil (2,4-dithiouracil) has been reported to induce hydantoinase activity in Agrobacterium IP I-671 by 40-fold [Meyer, et al., FEMS 109:71(1993)]. In a separate experiment, hydantoinase activities were determined following the growth of A. tumefaciens ATCC 55632 on a complex medium (750 ml) (see media preparation described in Example 1) containing the inducing compounds at 1 gm/liter. The culture media were inoculated with 24 hour seed culture of A. tumefaciens ATCC 55632 and incubated for 24 hours with shaking at 30°C. Hydantoinase extracts were prepared and the effect of 2,4-thiouracil on hydantoinase induction of A. tumefaciens is shown in Table 9.

Agrobacterium IP I-671 = details: cited from earlier work
[10] = tested on: Hydantoinase extract of A. tumefaciens ATCC 55632; experiment: Hydantoinase activation by metals; assay type: biochemical; details: 2 mM metal ion, dialyzed extract pre-incubated 30 minutes, assay at 40°C pH 9.0; control without addition 26.4
Description: Reaction mixtures (total vol. of 0.4 ml in microfuge tubes) contained 75 µmol of DL-5-methylhydantoin (unless designated otherwise) in 50 mM Tris-HCl buffer (pH 9.0) and a suitable amount of hydantoinase extract. Hydantoinase extracts were added to reaction mixtures which had been pre-equilibrated at 40°C, and after 10 minutes incubation at this temperature, reactions were terminated by the addition of 100 µl of 10% (weight/volume) trichloroacetic acid, followed by 100 µl of 10% (weight/volume) PDMB in 6 N HCl. The solutions were mixed, diluted with 0.6 ml of water and centrifuged at 10,000 rpm for 5 minutes. The absorbencies of the supernatant fractions were determined at 440 nm with a Shimadzu Model 160 spectrophotometer. One unit of activity is defined as the amount of enzyme required to form 1 µmol of N-carbamyl amino acid under these conditions. Protein was determined by the BCA assay as per the manufacturer's instructions. […] Specific activity is expressed as units per mg protein.
D. Hydantoinase activation by metals. […] Solutions (360 µl) containing either 2 mM Mg^++, Co^++ or Ni^++ in 50 mM Tris buffer, pH 9.0 were pre-incubated with dialyzed hydantoinase extract for 30 minutes at ambient temperature. The reaction mixtures were equilibrated in a 40°C water bath for 2 minutes. The hydantoinase assay was started immediately with the addition of 40 µl DL-5-methylhydantoin (100 mg/ml in 50 mM Tris-HCl buffer, pH 9.0).

## CCC(C)C1NC(=O)NC1=O (racemic) [DL-5-(sec)-Butylhydantoin]
[1]
  Relative Activity (%): 76%

## O=C1NC(=O)C(Cc2ccccc2)N1 (racemic) [DL-5-Benzylhydantoin]
Hydantoinase [2]
  % Relative Activity with: 6: 100%
[1]
  % Relative Activity with: ATCC 55632: 15%
  Relative Activity (%): 19%
Hydantoinase [3]
  % Relative Activity with: 4: 57%
Hydantoinase [4]
  % Relative Activity with: 5: 32%
Hydantoinase [5]
  % Relative Activity with: 2: 2%

## O=C1NC(=O)C(CO)N1 (racemic) [DL-5-Hydroxymethylhydantoin]
[1]
  Relative Activity (%): 22%

## CC(C)CC1NC(=O)NC1=O (racemic) [DL-5-Isobutylhydantoin]
[1]
  Relative Activity (%): 77%

## CC(C)C1NC(=O)NC1=O (racemic) [DL-5-Isopropylhydantoin]
[1]
  Relative Activity (%): 73%

## CC1NC(=O)NC1=O (racemic) [DL-5-Methylhydantoin]
Hydantoinase [2]
  % Relative Activity with: 6: 37%
[1]
  % Relative Activity with: ATCC 55632: 80%
  Relative Activity (%): 100%
[6]
  Specific Activity (U/mg): 1.65 U/mg
Hydantoinase [4]
  % Relative Activity with: 5: 24%
Hydantoinase [7]
  % Relative Activity with: 1: 100%
Hydantoinase [8]
  % Relative Activity with: 3: 45%

## O=C1NC(=O)C(c2ccccc2)N1 (racemic) [DL-5-Phenylhydantoin]
[1]
  % Relative Activity with: ATCC 55632: 68%
  Relative Activity (%): 85%
Hydantoinase [3]
  % Relative Activity with: 4: 34%
Hydantoinase [4]
  % Relative Activity with: 5: 51%
Hydantoinase [7]
  % Relative Activity with: 1: 37%
Hydantoinase [8]
  % Relative Activity with: 3: 25%

## CN1CC(=O)NC1=O [1-Methylhydantoin]
[6]
  Specific Activity (U/mg): 0.09 U/mg

## S=c1cc[nH]c(=S)[nH]1 [2,4-Thiouracil]
[9]; A. tumefaciens ATCC 55632
  induction of hydantoinase activity (in words): does not appear to induce hydantoinase activity
[9]
  Specific Activity (Units/mg): 0.15 Units/mg
Agrobacterium IP I-671; Meyer, et al., FEMS 109:71(1993)
  induction of hydantoinase activity: 40 fold

## CSCCC1NC(=O)NC1=O (centres unmarked) [5(2-methylthioethyl) hydantoin]
Hydantoinase [2]
  % Relative Activity with: 6: 55%
[1]
  % Relative Activity with: ATCC 55632: 65%
  Relative Activity (%): 81%
Hydantoinase [3]
  % Relative Activity with: 4: 100%
Hydantoinase [4]
  % Relative Activity with: 5: 100%
Hydantoinase [5]
  % Relative Activity with: 2: 41%
Hydantoinase [8]
  % Relative Activity with: 3: 48%

## O=C1CCNC(=O)N1 [5,6-Dihydrouracil]
Hydantoinase [2]
  % Relative Activity with: 6: 10%
[1]
  % Relative Activity with: ATCC 55632: 100%
  Relative Activity (%): 125%
[6]
  Specific Activity (U/mg): 0.22 U/mg
Hydantoinase [3]
  % Relative Activity with: 4: 9%
Hydantoinase [7]
  % Relative Activity with: 1: 78%
Hydantoinase [5]
  % Relative Activity with: 2: 100%
Hydantoinase [8]
  % Relative Activity with: 3: 100%

## [Co+2] [Cobalt]
[10]
  Hydantoinase Activity (Units/ml): 27.9 Units/ml

## NC(=O)NCC(=O)O [Hydantoic acid]
[6]
  Specific Activity (U/mg): 1.34 U/mg

## O=C1CNC(=O)N1 [Hydantoin]
[6]
  Specific Activity (U/mg): 1.44 U/mg
[9]; A. tumefaciens ATCC 55632, versus no inducer
  increase of hydantoinase activity: 10 fold
[9]
  Specific Activity (Units/mg): 1.37 Units/mg
Agrobacterium IP I-671; FEMS 109:71, 1993
  induction of hydantoinase activity (in words): does not induce hydantoinase activity

## [Mg+2] [Magnesium]
[10]
  Hydantoinase Activity (Units/ml): 24.8 Units/ml

## C[C@H](NC(N)=O)C(=O)O [N-carbamyl alanine]
[6]
  Specific Activity (U/mg): 0.44 U/mg

## NC(=O)N[C@@H](Cc1ccccc1)C(=O)O [N-carbamylphenylalanine]
[6]
  Specific Activity (U/mg): 0.13 U/mg

## [Ni+2] [Nickel]
[10]
  Hydantoinase Activity (Units/ml): 25.0 Units/ml

## Tryptophan hydantoin
[6]
  Specific Activity (U/mg): 0.10 U/mg
